Results from the NIST ThermoML archive (doi:10.1016/j.fluid.2013.01.002).
± gives the expanded uncertainty stated by the source.

Assays:
[1] = 298.15 K; 101.33 kPa; Liquid; Vibrating tube method
[2] = refractive index (Na D-line) (dimensionless); conditions: 298.15 K; 101.33 kPa; Liquid; Standard Abbe refractometry
[3] = xn = mol fraction of the nth substance listed; conditions: 298.15 K, 101 kPa, Liquid, Vibrating tube method
[4] = refractive index (Na D-line) (dimensionless); xn = mol fraction of the nth substance listed; conditions: 298.15 K, 101 kPa, Liquid, Standard Abbe refractometry

CCCCCCCCCCC [undecane]
Conditions	mass density [kg/m3]	refractive index
[1]	736.73 ± 0.14	–
[2]	–	1.415 ± 0.0004

CCCCCCCCN(CCCCCCCC)CCCCCCCC [trioctylamine] + CCCCCCCCCCCC
Conditions	mass density, [3] [kg/m3]	refractive index, [4]
x1 = 0.0501	751.32 ± 0.13	1.4222 ± 0.0004
x1 = 0.1	756.64 ± 0.13	1.4249 ± 0.0004
x1 = 0.1998	765.98 ± 0.13	1.4287 ± 0.0004
x1 = 0.3	773.95 ± 0.12	1.4323 ± 0.0004
x1 = 0.4	780.79 ± 0.12	1.4354 ± 0.0004
x1 = 0.5001	786.75 ± 0.12	1.4381 ± 0.0004
x1 = 0.6023	792.12 ± 0.12	1.4403 ± 0.0004
x1 = 0.7001	796.7 ± 0.11	1.4426 ± 0.0004
x1 = 0.8025	801 ± 0.11	1.4444 ± 0.0004
x1 = 0.9002	804.65 ± 0.11	1.4461 ± 0.0004
x1 = 0.9499	806.35 ± 0.11	1.4468 ± 0.0004

CCCCCCCCN(CCCCCCCC)CCCCCCCC [trioctylamine] + CCCCCCCCCCC
Conditions	mass density, [3] [kg/m3]	refractive index, [4]
x1 = 0.05	743.91 ± 0.14	1.4176 ± 0.0004
x1 = 0.1	750.33 ± 0.13	1.4199 ± 0.0004
x1 = 0.2017	761.55 ± 0.13	1.4243 ± 0.0004
x1 = 0.3001	770.56 ± 0.12	1.4285 ± 0.0004
x1 = 0.4002	778.34 ± 0.12	1.4319 ± 0.0004
x1 = 0.4997	785.01 ± 0.12	1.4351 ± 0.0004
x1 = 0.6003	790.89 ± 0.12	1.438 ± 0.0004
x1 = 0.6989	795.96 ± 0.11	1.4407 ± 0.0004
x1 = 0.7996	800.52 ± 0.11	1.4434 ± 0.0004
x1 = 0.9003	804.51 ± 0.11	1.4455 ± 0.0004
x1 = 0.9497	806.25 ± 0.11	1.4466 ± 0.0004

CCCCCCCCN(CCCCCCCC)CCCCCCCC [trioctylamine] + CCCCCCCCCCCCO
Conditions	mass density, [3] [kg/m3]	refractive index, [4]
x1 = 0.0498	828.8 ± 0.1	1.4416 ± 0.0004
x1 = 0.1011	827.31 ± 0.1	1.4424 ± 0.0004
x1 = 0.2014	824.49 ± 0.1	1.4437 ± 0.0004
x1 = 0.3012	821.97 ± 0.1	1.4447 ± 0.0004
x1 = 0.4001	819.63 ± 0.1	1.4455 ± 0.0004
x1 = 0.5	817.37 ± 0.11	1.4461 ± 0.0004
x1 = 0.6005	815.19 ± 0.11	1.4465 ± 0.0004
x1 = 0.6995	813.14 ± 0.11	1.4469 ± 0.0004
x1 = 0.799	811.21 ± 0.11	1.4473 ± 0.0004
x1 = 0.8999	809.43 ± 0.11	1.4475 ± 0.0004
x1 = 0.9504	808.63 ± 0.11	1.4476 ± 0.0004

CCCCCCCCN(CCCCCCCC)CCCCCCCC [trioctylamine]
Conditions	mass density [kg/m3]	refractive index
[1]	807.9 ± 0.11	–
[2]	–	1.4476 ± 0.0004

CCCCCCCCCCCCO [dodecan-1-ol]
Conditions	mass density [kg/m3]	refractive index
[1]	830.37 ± 0.1	–
[2]	–	1.4407 ± 0.0004

CCCCCCCCCCCC [dodecane]
Conditions	mass density [kg/m3]	refractive index
[1]	745.52 ± 0.13	–
[2]	–	1.4195 ± 0.0004
